Experimental data reported in US6005103A, “Pyrone derivatives as protease inhibitors and antiviral agents” (Warner-Lambert Company, priority 1994, dated 1999).
Values after ≈ are worked out from the molar mass of the structure shown.

Experiments:
[1] = tested on: Enterococcus foecalis MGH2; test: Antibacterial activity, microtitration dilution method; assay type: cell-based; settings: read-out: minimum inhibitory concentration (MIC)
Text: (§1) The compounds of the invention display antibacterial activity when tested by the microtitration dilution method as described in Heifetz, et al., Antimicr. Agents. & Chemoth. 6: 124 (1974) which is incorporated herein by reference.
(§2) By use of the above referenced method, the following minimum inhibitory concentration values (MICs in μg/mL) were obtained for representative compounds of the invention vs. clinically relevant gram positive pathogens which have become highly resistant to conventional therapy in recent years.

[2] = tested on: Staphylococcus aureus UC-76; test: as above; assay type: cell-based; settings: UC76, read-out: minimum inhibitory concentration (MIC)
Text: as §1, §2

[3] = tested on: Staphylococcus aureus H228; test: as above; assay type: cell-based; settings: read-out: minimum inhibitory concentration (MIC)
Text: as §1, §2

[4] = tested on: Streptococcus pyogenes C203; test: as above; assay type: cell-based; settings: read-out: minimum inhibitory concentration (MIC)
Text: as §1, §2

[5] = tested on: Streptococcus pneumonia 5V-1; test: as above; assay type: cell-based; settings: Streptococcus pneumoniae, 5V1, read-out: minimum inhibitory concentration (MIC)
Text: as §1, §2

HIV = settings: cell-free and cell-mediated HIV infection; cited from earlier work

Structure (SMILES)	MIC [1] [µg/mL]	MIC [2] [µg/mL]	MIC [3] [µg/mL]	MIC [4] [µg/mL]	MIC [5] [µg/mL]	HIV infection inhibition (in words) (HIV)
CC(C)CC(SC1CCCCC1)c1c(O)cc(-c2ccccc2)oc1=O (racemic) [Example 142, 3-[l-(Cyclohexylthio)-3-methylbutyl]-4-hydroxy-6-phenyl-2H-pyran-2-one (±)]	25 (≈ 67.1 µM)	12.5 (≈ 33.6 µM)	12.5 (≈ 33.6 µM)	25 (≈ 67.1 µM)	25 (≈ 67.1 µM)	
CC(=O)CC(c1ccccc1)c1c(O)c2ccccc2oc1=O (stereo not drawn) [Warfarin, 3-(α-acetonylbenzyl)-4-hydroxycoumarin]						inhibiting cell-free and cell-mediated HIV infection
